Like-named read-outs stand apart in the source and are kept apart here.
Assays:
[1] = target: T1, Chk1 protein kinase (Homo sapiens, UniProt O14757); test: Chk1 enzyme inhibitory activity, ADP-Glo kit; format: biochemical
T1 sequence (O14757 1-476): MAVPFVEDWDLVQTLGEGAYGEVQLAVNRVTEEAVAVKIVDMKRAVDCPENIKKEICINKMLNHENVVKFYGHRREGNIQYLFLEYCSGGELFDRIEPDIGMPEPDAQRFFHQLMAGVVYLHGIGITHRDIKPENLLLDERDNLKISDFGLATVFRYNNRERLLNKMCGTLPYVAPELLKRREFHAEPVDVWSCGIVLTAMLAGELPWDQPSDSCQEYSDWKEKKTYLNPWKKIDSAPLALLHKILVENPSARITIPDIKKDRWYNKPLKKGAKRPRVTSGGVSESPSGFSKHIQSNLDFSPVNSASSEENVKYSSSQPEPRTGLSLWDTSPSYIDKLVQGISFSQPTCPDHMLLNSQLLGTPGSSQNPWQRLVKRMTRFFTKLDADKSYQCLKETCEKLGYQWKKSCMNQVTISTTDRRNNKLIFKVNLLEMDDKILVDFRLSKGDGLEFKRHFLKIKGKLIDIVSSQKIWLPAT
Method: With the Saurosporine as a positive control, the Chk1 enzyme inhibitory activity (IC50) was evaluated using the ADP-Glo kit. […] The phosphorylation process consumes ATP. After the reaction, ADP-Glo™ Reagent consumes the remaining ATP. The ADP produced during the reaction can be transformed by ADP-Glo Detection Reagent. For ATP, ATP acts as a substrate for the Ultra-Glo™ luciferase catalytic reaction, producing an optical signal. The test compound was dissolved in DMSO to make a 10 mM stock solution and diluted to 12 different concentrations in a certain ratio for testing. […] Incubate for 1 h, stop the reaction by adding 5 μL of ADP-Glo™ Reagent, and incubate for 1 h at 37° C. 10 μL of ADP-Glo Detection Reagent was added, incubated at 37° C. for 30 min, and three parallel wells were set for each sample. […] was measured by luminescence fluorescence microplate reader, and data were calculated using GraphPad Prism 5 software to calculate IC50 values.

[2] = test system: human multiple myeloma cells RPMI 8226; test: MTS in vitro proliferation assay, RPMI 8226; format: cell-based; conditions: 72 hours, read-out: IC50(μM) RPMI8226
Method: (§1) The cells in the logarithmic growth phase were trypsinized, counted, and seeded at a density of 1×10^4 cells/well in a 96-well plate at 100 μL per well in a 37° C. incubator containing 5% CO2 overnight. For the culture, six concentration gradients were set for each compound, and three sets of duplicate wells were set for each concentration. After the addition, the cells were cultured for 72 hours, and 20 μL of MTS was added. After incubating for 2 hours at 37° C., the absorbance at 490 nm (L1) was measured with a SpectraMAX 340 microplate reader.

[3] = test system: human mantle cell lymphoma cells Mino; test: MTS in vitro proliferation assay, Mino; format: cell-based; conditions: 72 hours
Method: as §1

[4] = test system: human lymphoma cells Romas; test: MTS in vitro proliferation assay, Romas; format: cell-based; conditions: 72 hours
Method: as §1

[5] = test system: human mantle cell lymphoma cells Jeko-1; test: MTS in vitro proliferation assay, Jeko-1; format: cell-based; conditions: 72 hours
Method: as §1

[6] = test system: human acute monocytic leukemia cells MV-4-11; test: MTS in vitro proliferation assay, MV-4-11; format: cell-based; conditions: MV4-11, 72 hours
Method: as §1

[7] = test system: Human lung cancer cell A549; test: MTS in vitro proliferation assay, A549; format: cell-based; conditions: 72 hours, average of three experiments
Method: as §1

[8] = test system: human prostate cancer cell LnCAP; test: MTS in vitro proliferation assay, LnCAP; format: cell-based; conditions: 72 hours, average of three experiments
Method: as §1

[9] = test system: human gastric cancer cell BGC-823; test: MTS in vitro proliferation assay, BGC-823; format: cell-based; conditions: 72 hours, average of three experiments
Method: as §1

[10] = test system: human colon cancer cell HCT116; test: MTS in vitro proliferation assay, HCT116; format: cell-based; conditions: HCT-116, 72 hours, average of three experiments
Method: as §1

[11] = test system: human ovarian cancer cell OVCAR-8; test: MTS in vitro proliferation assay, OVCAR-8; format: cell-based; conditions: 72 hours, average of three experiments
Method: as §1

[12] = test system: human colon cancer cell Colo205; test: MTS in vitro proliferation assay, Colo205; format: cell-based; conditions: COLO 205, 72 hours, average of three experiments
Method: as §1

[13] = test system: human breast cancer cells MCF-7; test: cells; conditions: MCF7, 72 h, read-out: IC50(μM) MCF-7
Method: as §1

[14] = Table 2 >10 μM or <1 μM, read-out: Chk1 IC50, bound with unit
[15] = Table 2 left column pair, numeric cells, read-out: Chk1 (IC50)

SMILES	IC50 [1, 14]	IC50 [1, 15]	IC50 [2]	IC50 [3]	IC50 [4]	IC50 [5]	IC50 [6]	IC50 [7]	IC50 [8]	IC50 [9]	IC50 [10]	IC50 [11]	IC50 [12]	IC50 [13]
CNc1nc(Nc2cc(OC3CCNCC3)n(C)n2)ncc1-c1cnn(C)c1 [Compound 1, N^4-methyl-5-(1-methyl-1H-pyrazol-4-yl)-N^2-(1-methyl-5-(piperidin-4-yloxy)pyrazol-3-yl)-2,4-diaminopyrimidine]	> 10000 nM	–	–	–	–	–	–	–	–	–	–	–	–	–
CNc1nc(Nc2cc(OC3CCNCC3)no2)ncc1-c1cnn(C)c1 [Compound 2, N^4-Methyl-5-(1-methyl-1H-pyrazol-4-yl)-N^2-(3-(piperidin-4-yloxy)isoxazol-5-yl)-2,4-diaminopyrimidine]	> 10000 nM	–	–	–	–	–	–	–	–	–	–	–	–	–
CNc1nc(Nc2cn(C)c(OC3CCNCC3)n2)ncc1-c1cnn(C)c1 [Compound 3, N^4-Methyl-5-(1-methyl-1H-pyrazol-4-yl)-N^2-(1-methyl-2-(piperidin-4-yloxy)imidazol-4-yl)-2,4-diaminopyrimidine]	> 10000 nM	–	–	–	–	–	–	–	–	–	–	–	–	–
CNc1nc(Nc2cc(OC3CCNCC3)ns2)ncc1-c1cnn(C)c1 [Compound 4, N^4-Methyl-5-(1-methyl-1H-pyrazol-4-yl)-N^2-(2-(piperidin-4-yloxy)isothiazol-5-yl)-2,4-diaminopyrimidine]	> 10000 nM	–	–	–	–	–	–	–	–	–	–	–	–	–
CNc1nc(NC2CN=C(OC3CCNCC3)O2)ncc1-c1cnn(C)c1 (stereo not shown) [Compound 5, N^4-Methyl-5-(1-methyl-1H-pyrazol-4-yl)-N^2-(2-(piperidin-4-yloxy)-4,5-2H-oxazolin-5-yl)-2,4-diaminopyrimidine]	> 10000 nM	–	–	–	–	–	–	–	–	–	–	–	–	–
CNc1nc(Nc2cnc(OC3CCNCC3)s2)ncc1-c1cnn(C)c1 [Compound 6, N^4-Methyl-5-(1-methyl-1H-pyrazol-4-yl)-N^2-(2-(piperidin-4-yloxy)thiazol-5-yl)-2,4-diaminopyrimidine]	> 10000 nM	–	–	–	–	–	–	–	–	–	–	–	–	–
COc1nc(Nc2cnc(C#N)c(OCC3CCNCC3)c2)ncc1-c1cccc(F)c1 [Compound 17, 4-methoxy-5-(3-fluorophenyl)-N-(2-cyano-3-(piperidin-4-methyl)oxypyridin-5-yl)-2-aminopyrimidine]	–	8.8 nM	3.29 µM	0.495 µM	0.348 µM	0.117 µM	0.05 µM	4.24 µM	> 10 µM	> 10 µM	1.9 µM	0.22 µM	0.878 µM	–
COc1nc(Nc2cnc(C#N)c(OCC3CCNCC3)c2)ncc1-c1cnn(C)c1 [Compound 18, 4-methoxy-5-(1-methyl-1H-pyrazol-4-yl)-N-(2-cyano-3-(piperidin-4-methyl)oxypyridin-5-yl)-2-aminopyrimidine]	–	1.8 nM	–	–	–	–	0.036 µM	3.17 µM	7 µM	7.11 µM	1.77 µM	2.14 µM	1.01 µM	–
CNc1nc(Nc2cnc(C#N)c(OC3CCCNC3)c2)ncc1-c1cnn(C)c1 (stereo not shown) [Compound 32, N^4-Methyl-5-(1-methyl-1H-pyrazol-4-yl)-N^2-(2-cyano-3-(piperidin-3-yloxy)pyridin-5-yl)-2,4-diaminopyrimidine]	–	–	8.18 µM	0.859 µM	0.789 µM	0.189 µM	0.064 µM	5.17 µM	6 µM	7.64 µM	4.18 µM	–	–	–
CNc1nc(Nc2cnc(C#N)c(O[C@@H]3CCCNC3)c2)ncc1-c1cnn(C)c1 [Compound 35, (R)-N^4-methyl-5-(1-methyl-1H-pyrazol-4-yl)-N^2-(2-cyano-3-(piperidin-3-yloxy)pyridin-5-yl)-2,4-diaminopyrimidine]	–	–	1.27 µM	0.647 µM	0.356 µM	0.339 µM	0.053 µM	2.16 µM	2.17 µM	4.81 µM	0.98 µM	0.789 µM	0.663 µM	1.01 µM
CNc1nc(Nc2cnc(C#N)c(O[C@H]3CCCNC3)c2)ncc1-c1cnn(C)c1 [Compound 36, (S)-N^4-methyl-5-(1-methyl-1H-pyrazol-4-yl)-N^2-(2-cyano-3-(piperidin-3-yloxy)pyridin-5-yl)-2,4-diaminopyrimidine]	–	–	2.49 µM	0.956 µM	0.649 µM	0.548 µM	0.072 µM	5.74 µM	4.89 µM	–	2.55 µM	4.18 µM	2.18 µM	–
CNc1nc(Nc2cnc(C#N)c(O[C@H](C)CN(C)C)c2)ncc1-c1cnn(C)c1 [Compound 41, (R)-N^4-methyl-5-(1-methyl-1H-pyrazol-4-yl)-N^2-(2-cyano-3-(1-dimethylaminopropyl-2-oxy)pyridin-5-yl)-2,4-diaminopyrimidine]	–	–	0.945 µM	0.473 µM	0.119 µM	0.094 µM	0.034 µM	2.17 µM	2.62 µM	5.17 µM	1.31 µM	1.19 µM	0.993 µM	1.01 µM
CNc1nc(Nc2cnc(C#N)c(O[C@@H](C)CN(C)C)c2)ncc1-c1cnn(C)c1 [Compound 42, (S)-N^4-methyl-5-(1-methyl-1H-pyrazol-4-yl)-N^2-(2-cyano-3-(1-dimethylaminopropyl-2-oxy)pyridin-5-yl)-2,4-diaminopyrimidine]	–	–	0.814 µM	0.227 µM	0.218 µM	0.137 µM	0.092 µM	> 10 µM	5.74 µM	–	4.19 µM	2.17 µM	1.03 µM	–
N#Cc1ncc(Nc2ncc(C(F)(F)F)cn2)cc1OC1CCCNC1 (stereo not shown) [Compound 45, 5-trifluoromethyl-N-(2-cyano-3-(piperidin-3-oxy)pyridin-5-yl)-2-aminopyrimidine]	< 1000 nM	–	–	–	–	–	–	–	–	–	–	–	–	–
COc1nc(Nc2cnc(C#N)c(OCC3CCNCC3)c2)ncc1C(F)(F)F [Compound 46, 4-methoxy-5-trifluoromethyl-N-(2-cyano-3-(piperidin-4-methyl)oxypyridin-5-yl)-2-aminopyrimidine]	< 1000 nM	–	–	–	–	–	–	–	–	–	–	–	–	–
CNc1nc(Nc2cnc(C#N)c(O[C@@H]3CCCNC3)c2)ncc1C(F)(F)F [Compound 47, (R)—N^4-methyl-5-trifluoromethyl-N^2-(2-cyano-3-(piperidin-3-oxy)pyridin-5-yl)-2,4-diaminopyrimidine]	< 1000 nM	–	–	–	–	–	–	–	–	–	–	–	–	–

Source: patent US11591325B2, “2-polysubstituted aromatic ring-pyrimidine derivatives, preparation and medical application thereof” (ZHEJIANG UNIVERSITY, priority 2016, dated 2023)
